System: patients with refractory metastatic colorectal cancer (mCRC)
Assay: PFS, OS and disease control in the training (evaluation) cohort of refractory mCRC patients receiving TAS-102 (n=52, Japan), by baseline characteristics, SNP genotype and toxicity
Type: in vivo, human
Conditions: evaluation cohort; for HR OS (95% CI) / HR PFS (95% CI): XRCC3 rs861539 G/A vs G/G (Ref.)
Experimental: All patients underwent the treatment in salvage-line setting. […]
(§1) Genomic DNA was extracted from peripheral whole blood in patients of all cohorts using the QIAmp Kit (Qiagen, Valencia, Calif., USA) according to the manufacturer's protocol (www.qiagen.com). The candidate SNPs were genotyped using PCR-based direct DNA sequence analysis by ABI 3100A Capillary Genetic Analyzer and Sequencing Scanner v1.0 (Applied Biosystems). Amplification of extracted DNA was carried out using both forward and reverse primers for each gene polymorphism as shown in Table 1. […] The investigators analyzing SNPs were blinded to the clinical data of the study patients.
The primary endpoint in this study was progression-free survival (PFS), and the secondary endpoints were overall survival (OS) and disease control rate (DCR). PFS was calculated from the date of starting treatment to the first observation of disease progression or death from any cause. If a patient had no disease progression or death, PFS was censored at the date of last follow up. OS was calculated from the date of starting treatment until the date of death from any cause or the date of the last follow-up, at which point OS was censored. The disease control rate (DCR) was defined as the proportion of patients who achieved a stable disease (SD) or […] according to RECISTv1.1. Chi-square test was used to examine the difference in baseline patient characteristics among the three cohorts. Allelic distribution of all SNPs by ethnicity for deviation from Hardy-Weinberg equilibrium and the allelic frequencies of SNPs were tested using the Chi-square tests with one degree of freedom. The associations between candidate SNPs and disease control, and toxicities were examined using contingency tables and Fisher's exact test. The associations of SNPs with PFS and OS were analysed using Kaplan-Meier curves and the log-rank test. Because the true mode of inheritance of candidate SNPs was not established yet, a codominant or dominant genetic model if appropriate was considered.
All patients underwent the treatment in salvage-line setting. […] In all patients, adverse events were graded according to the Common Terminology Criteria for Adverse Events, version 4.0. […]
as §1, with “tested” for “genotyped”, “Biosystems).” for “Biosystems). Amplification of extracted DNA was carried out using both forward and reverse primers for each gene polymorphism as shown in Table 1.”, “data.” for “data of the study patients.”
The primary endpoint in this study was progression-free survival (PFS), and the secondary endpoints were overall survival (OS) and disease control rate (DCR).

[1] = Adjuvant history No vs Yes, univariate
[2] = Histology Mod-por vs well, univariate
[3] = KRAS Mutant vs Wild type, univariate
[4] = LN metastasis No vs Yes, univariate
[5] = Liver metastasis No vs Yes, univariate
[6] = Lung metastasis No vs Yes, univariate
[7] = Number of metastases >2 vs ≤2, univariate

Trifluridine/tipiracil [TAS-102] was tested. Which “PD, patients n (%)” value (Pin1 rs2233679 T/T) did it give?
The value was 4 (57%).

What about the “Disease Control Rate SD, patients n (%)” value (RAD51 rs1801320 G/C) of the same substance?
The value was 3 (43%).

And the “PD, patients n (%)” value (RAD51 rs1801320 G/C)?
The value was 4 (57%).

And the “Disease Control Rate SD, patients n (%)” value (RAD51 rs1801320 G/G)?
Its value is 12 (31%).

What about the “PD, patients n (%)” value (RAD51 rs1801320 G/G) of the same substance?
Its value is 27 (69%).

What about the “Disease Control CR/PR/SD, patients n (%)” value (XRCC3 rs861539 G/A) of the same substance?
Its value is 7 (44%).

What about the “Median PFS (95% CI)” value (XRCC3 rs861539 G/A) of the same substance?
Its value is 3.8 (1.6, 6.6) months.

What about the OS (XRCC3 rs861539 G/A) of the same substance?
Its OS is 15.6 months.

And the “PD, patients n (%)” value (XRCC3 rs861539 G/A)?
The value was 9 (56%).

What about the “HR OS (95% CI)” value (multivariable) of the same substance?
Its value is 0.31 (0.09, 1.03).

And the “HR PFS (95% CI)” value (multivariable)?
Its value is 0.52 (0.24, 1.11).

And the “HR OS (95% CI)” value (univariate)?
Its value is 0.25 (0.08, 0.79).

And the “HR PFS (95% CI)” value (univariate)?
Its value is 0.44 (0.21, 0.92).

And the “Disease Control CR/PR/SD, patients n (%)” value (XRCC3 rs861539 G/G)?
Its value is 8 (27%).

And the “Median OS (95% CI)” value (XRCC3 rs861539 G/G)?
Its value is 6.3 (4.9, 12.4+) months.

What about the “Median PFS (95% CI)” value (XRCC3 rs861539 G/G) of the same substance?
The value was 2.3 (1.9, 3.3) months.

And the OS (XRCC3 rs861539 G/G)?
Its OS is 6.3 months.

And the “PD, patients n (%)” value (XRCC3 rs861539 G/G)?
Its value is 22 (73%).

What about the “Disease Control Rate SD, patients n (%)” value (p21 rs1059234 Any C) of the same substance?
The value was 10 (29%).

And the “PD, patients n (%)” value (p21 rs1059234 Any C)?
The value was 25 (71%).

What about the “Disease Control Rate SD, patients n (%)” value (p21 rs1059234 C/C) of the same substance?
The value was 4 (31%).

What about the “PD, patients n (%)” value (p21 rs1059234 C/C) of the same substance?
The value was 9 (69%).

And the “Disease Control Rate SD, patients n (%)” value (p21 rs1059234 T/C)?
Its value is 6 (27%).

And the “PD, patients n (%)” value (p21 rs1059234 T/C)?
Its value is 16 (73%).

And the “Disease Control Rate SD, patients n (%)” value (p21 rs1059234 T/T)?
The value was 5 (45%).

What about the “PD, patients n (%)” value (p21 rs1059234 T/T) of the same substance?
Its value is 6 (55%).

And the “Disease Control Rate SD, patients n (%)” value (p21 rs1801270 A/A)?
Its value is 4 (31%).

What about the “PD, patients n (%)” value (p21 rs1801270 A/A) of the same substance?
Its value is 9 (69%).

What about the “Disease Control Rate SD, patients n (%)” value (p21 rs1801270 A/C) of the same substance?
Its value is 6 (29%).

What about the “PD, patients n (%)” value (p21 rs1801270 A/C) of the same substance?
The value was 15 (71%).

What about the “Disease Control Rate SD, patients n (%)” value (p21 rs1801270 Any C) of the same substance?
The value was 11 (33%).

And the “PD, patients n (%)” value (p21 rs1801270 Any C)?
Its value is 22 (67%).

And the “Disease Control Rate SD, patients n (%)” value (p21 rs1801270 C/C)?
The value was 5 (42%).

What about the “PD, patients n (%)” value (p21 rs1801270 C/C) of the same substance?
The value was 7 (58%).

And the “Disease Control Rate SD, patients n (%)” value (p53 rs1042522 Any G)?
The value was 9 (35%).

What about the “PD, patients n (%)” value (p53 rs1042522 Any G) of the same substance?
The value was 17 (65%).

What about the “Disease Control Rate SD, patients n (%)” value (p53 rs1042522 C/C) of the same substance?
Its value is 6 (30%).

And the “PD, patients n (%)” value (p53 rs1042522 C/C)?
Its value is 14 (70%).

And the “Disease Control Rate SD, patients n (%)” value (p53 rs1042522 G/G)?
The value was 2 (33%).

And the “PD, patients n (%)” value (p53 rs1042522 G/G)?
Its value is 4 (67%).

And the “HR for OS” value (ATM rs609429, multivariable adjusted for liver metastases and adjuvant history)?
Its value is 0.24.

And the “HR for OS” value (ATM rs609429 any G vs C/C, univariate)?
Its value is 0.37.

What about the “Overall Survival Median, months” value (Adjuvant history No) of the same substance?
The value was 6.3 months.

And the “Progression-Free Survival Median, months” value (Adjuvant history No)?
The value was 2.1 months.

And the “Overall Survival HR” value [1]?
Its value is 2.44.

And the “Progression-Free Survival HR” value [1]?
The value was 1.90.

And the “Overall Survival Median, months” value (Adjuvant history Yes)?
The value was 8.7 months.

What about the “Progression-Free Survival Median, months” value (Adjuvant history Yes) of the same substance?
The value was 3.7 months.

What about the “Overall Survival Median, months” value (Age <61) of the same substance?
Its value is 8.1 months.

What about the “Progression-Free Survival Median, months” value (Age <61) of the same substance?
The value was 2.2 months.

What about the “Overall Survival Median, months” value (Age ≥61) of the same substance?
Its value is 6.3 months.

And the “Progression-Free Survival Median, months” value (Age ≥61)?
The value was 3.0 months.

What about the “Overall Survival HR” value (Age ≥61 vs <61, univariate) of the same substance?
The value was 1.30.

And the “Progression-Free Survival HR” value (Age ≥61 vs <61, univariate)?
Its value is 0.81.

And the PFS (CHEK2 rs2267130 any C allele)?
Its PFS is 3.4 months.

What about the “HR for PFS” value (CHEK2 rs2267130 any C vs T/T, univariate) of the same substance?
The value was 0.48.

What about the “Overall Survival Median, months” value (Histology Mod-por) of the same substance?
Its value is 8.7 months.

What about the “Progression-Free Survival Median, months” value (Histology Mod-por) of the same substance?
Its value is 3.0 months.

What about the “Overall Survival HR” value [2] of the same substance?
The value was 0.52.

What about the “Progression-Free Survival HR” value [2] of the same substance?
The value was 0.94.

What about the “Overall Survival Median, months” value (Histology well) of the same substance?
The value was 6.3 months.

What about the “Progression-Free Survival Median, months” value (Histology well) of the same substance?
Its value is 2.1 months.

And the “Overall Survival Median, months” value (KRAS Mutant)?
Its value is 8.3 months.

What about the “Progression-Free Survival Median, months” value (KRAS Mutant) of the same substance?
Its value is 3.3 months.

And the “Overall Survival HR” value [3]?
Its value is 0.42.

And the “Progression-Free Survival HR” value [3]?
The value was 0.51.

What about the “Overall Survival Median, months” value (KRAS Wild type) of the same substance?
Its value is 7.2 months.

What about the “Progression-Free Survival Median, months” value (KRAS Wild type) of the same substance?
Its value is 2.1 months.

What about the “Overall Survival Median, months” value (LN metastasis No) of the same substance?
Its value is 7.2 months.

What about the “Progression-Free Survival Median, months” value (LN metastasis No) of the same substance?
The value was 2.5 months.

And the “Overall Survival HR” value [4]?
The value was 1.06.

What about the “Progression-Free Survival HR” value [4] of the same substance?
The value was 1.27.

And the “Overall Survival Median, months” value (LN metastasis Yes)?
The value was 8.3 months.

And the “Progression-Free Survival Median, months” value (LN metastasis Yes)?
The value was 3.0 months.

And the “Overall Survival Median, months” value (Liver metastasis No)?
The value was 8.7 months.

And the “Progression-Free Survival Median, months” value (Liver metastasis No)?
Its value is 4.2 months.

What about the “Overall Survival HR” value [5] of the same substance?
The value was 0.57.

And the “Progression-Free Survival HR” value [5]?
The value was 0.43.

What about the “Overall Survival Median, months” value (Liver metastasis Yes) of the same substance?
Its value is 7.2 months.

And the “Progression-Free Survival Median, months” value (Liver metastasis Yes)?
Its value is 2.3 months.

And the “Overall Survival Median, months” value (Lung metastasis No)?
The value was 6.3 months.

What about the “Progression-Free Survival Median, months” value (Lung metastasis No) of the same substance?
The value was 2.5 months.

What about the “Overall Survival HR” value [6] of the same substance?
The value was 1.44.

What about the “Progression-Free Survival HR” value [6] of the same substance?
The value was 1.19.

And the “Overall Survival Median, months” value (Lung metastasis Yes)?
Its value is 8.3 months.

And the “Progression-Free Survival Median, months” value (Lung metastasis Yes)?
Its value is 2.9 months.

What about the “Overall Survival Median, months” value (Number of metastases >2) of the same substance?
The value was 8.1 months.

What about the “Progression-Free Survival Median, months” value (Number of metastases >2) of the same substance?
Its value is 2.9 months.

And the “Overall Survival HR” value [7]?
The value was 1.63.

And the “Progression-Free Survival HR” value [7]?
The value was 1.22.

Reference: patent US20190233884A1 (University of Southern California, priority 2016, published 2019)
